The source of these data is paper PMC9732823, “Discovery of Dual Aβ/Tau Inhibitors and Evaluation of Their Therapeutic Effect on a Drosophila Model of Alzheimer’s Disease” (ACS Chemical Neuroscience, 2022).

One data set is described as follows: PAMPA-BBB assay. As to conditions: for Papp: pH 7.4. The source says: Thus, to reduce attrition in the development process, the evaluation of BBB penetration at a very early drug discovery stage is of crucial importance. In light of this, the ability of the previously selected compounds to cross the BBB was predicted by a parallel artificial membrane permeability assay (PAMPA)-BBB,[41] a high-throughput technique widely used as an indicator of a molecule’s passive diffusion through the BBB. Six commercially available drugs were used to validate the assay.
PAMPA (the parallel artificial membrane permeability assay) is a high-throughput screening tool applicable for the prediction of the passive transport of potential drugs across the BBB.[41] In this study, it has been used as a non-cell-based in vitro assay carried out in a coated 96-well membrane filter. The filter membrane of the donor plate was coated with PBL (Polar Brain Lipid, Avanti) in dodecane (4 μL of 20 mg/mL PBL in dodecane) and the acceptor well was filled with 300 μL of phosphate buffer saline, (PBS pH 7.4; VA). The tested compounds were dissolved first in DMSO and then diluted with PBS pH 7.4 to reach the final concentrations of 50–500 μM in the donor well. […] Then, 300 μL of the donor solution (VD) was added to the donor wells and the donor filter plate was carefully put on the acceptor plate so that the coated membrane was “in touch” with both donor solution and acceptor buffer. In principle, the test compound diffuses from the donor well through the polar brain lipid membrane (area = 0.28 cm^2) to the acceptor well. The concentrations of the tested compound in both donor and the acceptor wells were assessed after 3, 4, 5, and 6 h of incubation in quadruplicate using a UV plate reader, Synergy HT (Biotek) at the maximum absorption wavelength of each compound (n=3). In addition to that, solution of the theoretical compound concentration, simulating the equilibrium state established if the membrane were ideally permeable, was prepared and assessed as well. The concentrations of the compounds in the donor and acceptor wells and the equilibrium concentration were calculated from the standard curve and expressed as the permeability (Pe) according to the equation[41] [drawing 1] where [drawing 2]
(In PAMPA a lipid-coated filter parts donor from acceptor wells.)

The subject of data set [1] is cerebellar granule neurons (CGNs). Kind of data set: Neurotoxicity on primary cultures of cerebellar granule neurons (nuclei counting after Hoechst staining). As to conditions: differentiated CGNs, 24 h, percentage of healthy nuclei on total nuclei, mean ± SEM of three experiments.
The next data set addresses T1, Aβ42 (Homo sapiens, UniProt P05067).
T1 construct: expressed in transfected cells; host or cells: Escherichia coli BL21 (DE3), pET28a
Description: Inhibition of Aβ42 aggregation in intact E. coli cells overexpressing Aβ42 (ThS fluorescence). Type of data set: cell-based, Escherichia coli. As to conditions: for inhibition at 10 µM: read-out: % inhibition Aβ42 aggregation @ 10 μM, intact E. coli cells, compound 10 μM, mean ± SEM of four independent experiments. From the text: (§1) As it would have been labor-intensive and expensive to screen such a number of compounds in two separate antiaggregating studies using recombinant Aβ and Tau, we turned our attention to a simple model of protein aggregation, namely, the intact Escherichia coli (E. coli) cells overexpressing Aβ42 and Tau proteins.[28],[29] Building on the fact that inclusion bodies produced by overexpression of these proteins in E. coli mainly consist of fibrillar aggregates, this simple screening method uses bacteria as an in vivo reservoir for tracking the inhibition of amyloid-type protein aggregation in real time, using the amyloid dye thioflavin S (ThS). Of note, this screening has already been used for the evaluation of libraries of antiaggregating compounds.[28]−[38]
Escherichia coli competent cells BL21 (DE3) were transformed with the pET28a vector (Novagen, Inc., Madison, WI) carrying the DNA sequence of Aβ42. Because of the addition of the initiation codon ATG in front of both genes, the overexpressed peptide contains an additional methionine residue at its N terminus. For overnight culture preparation, an amount of 10 mL of M9 minimal medium containing 50 μg·mL^–1 kanamycin was inoculated with a colony of BL21 (DE3) bearing the plasmid to be expressed at 37 °C. For expression of the Aβ42 peptide, the required volume of overnight culture to obtain 1:500 dilution was added into fresh M9 minimal medium containing 50 μg·mL^–1 kanamycin and 250 μM ThS. The bacterial culture was grown at 37 °C and 250 rpm. When the cell density reached ABS600 nm = 0.6, an amount of 980 μL of culture was transferred into Eppendorf tubes of 1.5 mL with 10 μL of each compound to be tested in DMSO and 10 μL of isopropyl 1-thio-β-D-galactopyranoside (IPTG) at 100 mM. The final concentration of the drug was fixed at 10 μM. The samples were grown overnight at 37 °C and 1400 rpm using a thermomixer (Eppendorf, Hamburg, Germany). As the control of the amyloid presence (maximal amyloid presence), the same amount of DMSO without the drug was added to the sample. In parallel, noninduced samples (in the absence of IPTG) were also prepared and used as controls of the non-amyloid presence. In addition, the absorbance at 600 nm of the samples was checked to assess the potential intrinsic toxicity of the compounds and to confirm the correct bacterial growth.
(§2) ThS (T1892) and other chemical reagents were purchased from Sigma (St. Louis, MO). ThS stock solution (25 mM) was prepared in double-distilled water purified through a Milli-Q system (Millipore). For the fluorescence assay, the ThS spectra were measured on an AMINCO-Bowman series 2 luminescence spectrophotometer (Aminco-Bowman AB2, SLM Aminco, Rochester, NY) from 460 to 600 nm at 25 °C using an excitation wavelength of 440 nm and slit widths of 4 nm. The emission at 485 nm (fluorescence peak of ThS in the presence of amyloids) was recorded. To normalize the ThS fluorescence as a function of the bacterial concentration, ABS600nm was obtained using a Shimadzu UV-2401 PC UV–Vis spectrophotometer (Shimadzu, Japan). Note that the fluorescence normalization was carried out considering as 100% the ThS fluorescence of the bacterial cells expressing the peptide or protein in the absence of the drug and 0% the ThS fluorescence of the bacterial cells nonexpressing the peptide or protein.

A further data set has as its target T2, Tau protein (Homo sapiens, UniProt P10636).
T2 construct: expressed in transfected cells; host or cells: Escherichia coli BL21 (DE3) with pTARA and pRKT42
Description: Inhibition of Tau aggregation in intact E. coli cells overexpressing Tau (ThS fluorescence). As to conditions: for % inhibition Tau aggregation @ 10 μM: intact E. coli cells, compound 10 μM, mean ± SEM of four independent experiments; for inhibition at 10 µM: read-out: % inhibition Tau aggregation @ 10 μM, intact E. coli cells, compound 10 μM, mean ± SEM of four independent experiments. The class given is cell-based, Escherichia coli.
Description: as §1
E. coli BL21 (DE3) competent cells were transformed with pTARA containing the RNA-polymerase gen of the T7 phage (T7RP) under the control of the promoter PBAD. E. coli BL21 (DE3) with pTARA competent cells were transformed with the pRKT42 vector encoding four repeats of Tau protein in two inserts. For overnight culture preparation, 10 mL of M9 medium containing 0.5% of glucose, 100 μg·mL^–1 ampicillin, and 12.5 μg·mL^–1 chloramphenicol were inoculated with a colony of BL21 (DE3) bearing the plasmids to be expressed at 37 °C. For expression of Tau protein, the required volume of overnight culture to obtain 1:500 dilution was added to fresh M9 minimal medium containing 0.5% of glucose, 50 μg·mL^–1 ampicillin, 12.5 μg·mL^–1 chloramphenicol, and 25 μM ThS. The bacterial culture was grown at 37 °C and 250 rpm. When the cell density reached ABS600 nm= 0.6, an amount of 980 μL of culture was transferred into Eppendorf tubes of 1.5 mL with 10 μL of each compound to be tested in DMSO and 10 μL of arabinose at 25%. The final concentration of the drug was fixed at 10 μM. The samples were grown overnight at 37 °C and 1400 rpm using a thermomixer (Eppendorf, Hamburg, Germany). As the control of maximal amyloid presence, the same amount of DMSO without the drug was added to the sample. In parallel, noninduced samples (in the absence of arabinose) were also prepared and used as controls for the amyloid absence. In addition, the absorbance at 600 nm of the samples was checked to assess the potential intrinsic toxicity of the compounds and to confirm the correct bacterial growth.
as §2

T1 sequence (P05067 672-713 limits assumed): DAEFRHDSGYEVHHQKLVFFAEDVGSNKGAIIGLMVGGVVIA
T2 sequence (P10636 1-441 isoform P10636-8): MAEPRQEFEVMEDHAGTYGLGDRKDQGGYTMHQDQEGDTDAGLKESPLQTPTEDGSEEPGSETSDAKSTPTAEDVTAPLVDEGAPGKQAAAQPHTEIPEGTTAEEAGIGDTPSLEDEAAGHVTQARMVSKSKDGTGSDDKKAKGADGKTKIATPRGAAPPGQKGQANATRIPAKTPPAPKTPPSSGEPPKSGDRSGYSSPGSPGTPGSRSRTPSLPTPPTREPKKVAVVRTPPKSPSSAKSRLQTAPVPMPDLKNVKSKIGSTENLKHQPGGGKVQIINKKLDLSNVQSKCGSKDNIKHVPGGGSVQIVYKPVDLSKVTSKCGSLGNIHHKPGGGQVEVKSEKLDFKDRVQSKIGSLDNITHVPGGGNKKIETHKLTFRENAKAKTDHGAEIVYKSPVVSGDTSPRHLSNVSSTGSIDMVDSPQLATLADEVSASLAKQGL

Consider `CO/N=C(\C(=O)N[C@@H]1C(=O)N2C(C(=O)O)=C(COC(N)=O)CS[C@H]12)c1ccco1` [Cefuroxime, reference compound], for which the “CNS (+/-)” value in “PAMPA-BBB assay” (PAMPA-BBB penetration estimation) is recorded as “CNS - (CNS - (low BBB permeation predicted): Pe (×10-6 cm s-1) < 2.0)”.

For orientation: inhibition means the share of the control response that was lost under treatment. The Papp is a coefficient for how fast a substance crosses the barrier. On to `O=C(O)CN1C(=O)S/C(=C\c2ccc3[nH]c4ccc(/C=C5\SC(=O)N(CC(=O)O)C5=O)cc4c3c2)C1=O` [Compound 16, 2,2′-((5Z,5′Z)-((9H^–Carbazole-3,6-diyl)bis(methanylylidene))bis(2,4-dioxothiazolidin-3-yl-5-ylidene))diacetic acid], for which the “% survival neurotoxicity @ 10 μM” value in data set [1] was found to be 90.0 ± 2.8%. Besides, the “% inhibition Aβ42 aggregation @ 10 μM” value at Aβ42 (intact E. coli cells, compound 10 μM, mean ± SEM of four independent experiments, 10 µM) came out at 32.1 ± 3.1%. For the same compound, the inhibition at 10 µM at Aβ42 lay within 30 to 40%. For the same compound, the Papp in “PAMPA-BBB assay” (PAMPA) was found to be 5.5 ± 1.2 nm/s. On Tau protein, the “% inhibition Tau aggregation @ 10 μM” value is reported as 37.9 ± 3.5% and the inhibition at 10 µM is 30 to 40%.

On to `CC1(C)c2cc(/C=C3\SC(=O)N(CC(=O)O)C3=O)ccc2-c2ccc(/C=C3\SC(=O)N(CC(=O)O)C3=O)cc21` [Compound 17, 2,2′-((5Z,5′Z)-((9,9-Dimethyl-9H-fluorene-2,7-diyl)bis(methanylylidene))bis(2,4-dioxothiazolidin-3-yl-5-ylidene))diacetic acid], for which the “% survival neurotoxicity @ 10 μM” value in data set [1] was determined as 89.3 ± 2.3%. The inhibition at 10 µM at Aβ42 and at Tau protein was more than 50% throughout. In the data set “PAMPA-BBB assay” (PAMPA), the Papp is 8.8 ± 2 nm/s.

As for `O=C(O)CN1C(=O)S/C(=C\c2ccc(-c3ccc(/C=C4\SC(=O)N(CC(=O)O)C4=O)s3)s2)C1=O` [Compound 18, 2,2′-((5Z,5′Z)-([2,2′-Bithiophene]-5,5′-diylbis(methanylylidene))bis(2,4-dioxothiazolidin-3-yl-5-ylidene))diacetic acid], in data set [1], the “% survival neurotoxicity @ 10 μM” value was 90.9 ± 3.1%. For the same compound, the inhibition at 10 µM is 65.6 ± 3.3% on Aβ42 and less than 20% at Tau protein. Further, the “% inhibition Tau aggregation @ 10 μM” value at Tau protein is given as 15.8 ± 4.7%.

Take `CN(C)CCN1C(=O)S/C(=C\c2ccc(/C=C3\SC(=O)N(CCN(C)C)C3=O)cc2)C1=O` [Compound 19, (5Z,5′Z)-5,5′-(1,4-Phenylenebis(methanylylidene))bis(3-(2-(dimethylamino)ethyl)thiazolidine-2,4-dione)]: the “% survival neurotoxicity @ 10 μM” value in data set [1] is 89.4 ± 2.0%. The inhibition at 10 µM was 8.1 ± 4.4% on Aβ42 and 19.4 ± 3.6% at Tau protein.

On to `CN(C)CCN1C(=O)S/C(=C\c2ccc(-c3ccc(/C=C4\SC(=O)N(CCN(C)C)C4=O)cc3)cc2)C1=O` [Compound 20, (5Z,5′Z)-5,5′-([1,1′-Biphenyl]-4,4′-diylbis(methanylylidene))bis(3-(2-(dimethylamino)ethyl)thiazolidine-2,4-dione)], for which the “% survival neurotoxicity @ 10 μM” value in data set [1] is listed as 91.1 ± 0.9%. Also, the inhibition at 10 µM on Aβ42 came to 26.4 ± 4.2%; at Tau protein, 34.9 ± 1.9%.

As to `CN(C)CCN1C(=O)S/C(=C\c2ccc(Cc3ccc(/C=C4\SC(=O)N(CCN(C)C)C4=O)cc3)cc2)C1=O` [Compound 21, (5Z,5′Z)-5,5′-((Methylenebis(4,1-phenylene))bis(methanylylidene))bis(3-(2-(dimethylamino)ethyl)thiazolidine-2,4-dione)], the “% survival neurotoxicity @ 10 μM” value in data set [1] is listed as 91.1 ± 1.5%. The inhibition at 10 µM at Aβ42 worked out at 16.1 ± 3.8%; at Tau protein it was 38.7 ± 3.3%.

Take `CN(C)CCN1C(=O)S/C(=C\c2ccc(-c3ccc(/C=C4\SC(=O)N(CCN(C)C)C4=O)s3)s2)C1=O` [Compound 24, (5Z,5′Z)-5,5′-([2,2′-Bithiophene]-5,5′-diylbis(methanylylidene))bis(3-(2-(dimethylamino)ethyl)thiazolidine-2,4-dione)]: the “% survival neurotoxicity @ 10 μM” value in data set [1] is given as 88.8 ± 2.3%. Besides, the inhibition at 10 µM worked out at 20.3 ± 4.8% at Aβ42 and 17.3 ± 4.5% on Tau protein.

Turning to `CCN(C)C(=O)Oc1cccc([C@H](C)N(C)C)c1` [Rivastigmine, reference compound], the “CNS (+/-)” value in “PAMPA-BBB assay” (PAMPA) is on record as “CNS + (key: CNS + (high BBB permeation predicted): Pe (×10-6 cm s-1) > 4.0; CNS - (low BBB permeation predicted): Pe (×10-6 cm s-1) < 2.0; CNS +/- (uncertain BBB permeation): Pe (×10-6 cm s-1) from 4.0 to 2.0)”.
